Patent US12539335B2, “Tricyclic polypeptide conjugated drug and use thereof” (CONJUSTAR (ZHUHAI) BIOLOGICS CO., LTD., priority 2021, dated 2026)
Counter-ions that a name gives are not always drawn. Starred links: 1 amine or outer side, 2 acyl side, 3 side chain; linkers in the order of their positions; H or OH if unused. Positions of bridges follow the written chain, without caps; N, C: chain ends. Non-standard residues stand in square brackets, D forms with d. Residues, ends and D or L forms follow the SMILES beside them. Chains are numbered I, II in the order given. *: point of attachment. TATA = O=C(CC[*:1])N1CN(C(=O)CC[*:2])CN(C(=O)CC[*:3])C1; Dolaproine = CO[C@@H]([C@@H]1CCCN1)[C@@H](C)C(=O)O; Dil = CC[C@H](C)[C@H](NC)[C@@H](CC(=O)O)OC; 1Nal = N[C@@H](Cc1cccc2ccccc12)C(=O)O; X2 = O=C(CCCC(=O)[*:2])NCCC(=O)[*:1]; PABC = O=C(OCc1ccc(N[*:1])cc1)[*:2]; X1 = C[C@@H](N*)[C@@H](O)c1ccccc1; Hyp = O=C(O)[C@@H]1C[C@@H](O)CN1; hArg = N=C(N)NCCCC[C@H](N)C(=O)O; Cit = NC(=O)NCCC[C@H](N)C(=O)O; Pen = CC(C)(S)[C@H](N)C(=O)O; NMeV = CN[C@H](C(=O)O)C(C)C; Sar = CNCC(=O)O

What was measured:
Human Nectin-4 = molecular target: T1, Human Nectin-4 (Homo sapiens, UniProt Q96NY8); assay: Binding capacity to Nectin-4 protein (SPR, Biacore 8K)
T1 construct: purchased GE Healthcare 1006-72
T1 sequence (Q96NY8 32-510): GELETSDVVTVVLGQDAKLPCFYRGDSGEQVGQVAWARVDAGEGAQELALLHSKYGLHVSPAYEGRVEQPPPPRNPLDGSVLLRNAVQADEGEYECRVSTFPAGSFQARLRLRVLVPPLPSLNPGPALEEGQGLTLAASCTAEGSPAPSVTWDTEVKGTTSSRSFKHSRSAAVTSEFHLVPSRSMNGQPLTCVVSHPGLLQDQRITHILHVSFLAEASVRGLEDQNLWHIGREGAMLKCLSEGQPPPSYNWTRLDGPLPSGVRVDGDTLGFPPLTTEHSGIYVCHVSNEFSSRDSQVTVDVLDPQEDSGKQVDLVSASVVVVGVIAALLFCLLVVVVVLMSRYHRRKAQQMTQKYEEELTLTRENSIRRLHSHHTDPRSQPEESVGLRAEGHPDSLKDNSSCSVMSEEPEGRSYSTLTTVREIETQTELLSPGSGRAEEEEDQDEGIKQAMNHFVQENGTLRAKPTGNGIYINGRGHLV
Protocol: Test Example 1. Binding Capacity Test of the Compounds of the Present Invention to Nectin-4 Protein
To detect the affinity of the compound to be tested to the target protein Nectin-4 using the SPR method.
• Biacore 8K (GE Healthcare) • 96-well Plate (Cat #650101, greiner bio-one) • CM5 chip (Cat #BR-1005-30, GE Healthcare) • Amine Coupling Kit (Cat #BR-1000-50, GE Healthcare) • EDC • NHS • 1 M ethanolamine • 10 mM sodium acetate pH 4.5 (Cat #BR-1003-50, GE Healthcare) • DMSO (Cat #D4540, Sigma) • P20 (Cat #BR-1000-54, GE Healthcare) • PBS (Cat #BR-1006-72, GE Healthcare) • Nectin-4 (Cat #1006-72, GE Healthcare) 3. Experimental Protocol
In this experiment, the amino coupling method was used. The target protein Nectin-4 was directly immobilized on the CM5 chip using Biacore 8K. […] The final data were subjected to Kinetics fitting analysis based on a 1:1 model using Biacore Insight Evaluation Software (V 2.0.15.12933).
1) Preparation of the buffer: 10 mM PBS, pH 7.4, 137 mM NaCl, 2.7 mM KCl, 5% DMSO, and 0.05% P20.
2) Activation of the CM5 chip: The CM5 chip was activated with 400 mM EDC and 100 mM NHS at a flow rate of 10 μL/min for 420 seconds.
3) Coupling of the target protein: The target protein was diluted to 10 μg/mL with 10 mM sodium acetate (pH 4.5) and coupled at a flow rate of 10 μL/min for 284 s. The 1 #, 2 #, and 3 #channels on the chip were used in the experiment, and the coupling results were 1639.9RU, 1747.8RU, and 1702.2RU, respectively.
4) Blocking of the CM5 chip: The CM5 chip was blocked with 1 M ethanolamine at a flow rate of 10 μL/min for 420 seconds.
5) Analyte concentration: The compound to be tested was diluted with the buffer. The compound to be tested was diluted from 100 nM to 0.78 nM in a 2-fold gradient.
6) Sample injection analysis: Each concentration of the working solution of the compound to be tested corresponded to one cycle, with a flow rate of 30 μL/min for binding for 180 seconds and dissociating for 180 seconds. The last cycle was a 5% DMSO solvent correction cycle.
7) All results were subjected to kinetics fitting analysis based on a 1:1 model. […]

[1] = Stability in plasma, SD rats; type: in vitro ADME; conditions: Sprague-Dawley (SD), rat, 37° C.
Protocol: Test Example 9: Stability Analysis of the Compounds of the Present Invention in Plasma from Different Species
To test the stability of the compounds of the present invention in plasma from SD rats, Cynomolgus macaques, and humans.
The corresponding incubation plates, including T0, T10, T30, T60, T120, and T240 incubation plates, were added with a 2 μL working solution of the compound to be tested (100 μM). Three parallel wells were prepared for each sample. Then, 98 μL of blank plasma from SD rats, Cynomolgus macaques, and humans was added to the corresponding incubation plates to which the working solution had been added. All samples were incubated in a 37° C. water bath. […] At the end of each incubation time point, the corresponding incubation plate was removed, added with stop buffer, precipitated, and centrifuged for 20 minutes. Then, 150 μL of the supernatant was analyzed by the LC-MS/MS method. The concentration of the compound to be tested in the sample was semi-quantitatively determined by the liquid chromatography-tandem mass spectrometry (LC-MS/MS) method.

Work on `CC[C@H](C)[C@@H]([C@@H](CC(=O)N1CCC[C@H]1[C@H](OC)[C@@H](C)C(=O)N[C@H](C)[C@@H](O)c1ccccc1)OC)N(C)C(=O)[C@@H](NC(=O)[C@H](C(C)C)N(C)C(=O)OCc1ccc(NC(=O)[C@H](CCCNC(N)=O)NC(=O)[C@@H](NC(=O)CCCC(=O)NCCC(=O)N(C)CC(=O)N(C)CC(=O)N(C)CC(=O)N(C)CC(=O)N(C)CC(=O)N(C)CC(=O)N(C)CC(=O)N(C)CC(=O)N(C)CC(=O)N(C)CC(=O)N[C@H]2CCCCNC(=O)C[C@@H](C(=O)N[C@H]3CSCCC(=O)N4CN5CN(C4)C(=O)CCSC(C)(C)[C@H](NC(=O)[C@@H](CC(=O)O)NC(=O)[C@H](Cc4cccc6ccccc46)NC(=O)[C@@H]4CCCN4C3=O)C(=O)N[C@@H](CCSC)C(=O)N[C@@H](CCCCNC(=N)N)C(=O)N[C@@H](CC(=O)O)C(=O)N[C@@H](Cc3c[nH]c4ccccc34)C(=O)N[C@@H](CO)C(=O)N[C@@H]([C@@H](C)O)C(=O)N3CCC[C@H]3C(=O)N3C[C@H](O)C[C@H]3C(=O)N[C@@H](Cc3c[nH]c4ccccc34)C(=O)N[C@H](C(N)=O)CSCCC5=O)NC(=O)CN(C)C2=O)C(C)C)cc1)C(C)C` [Acetate salt of PDC_2] (I: [Sar][Sar][Sar][Sar][Sar][Sar][Sar][Sar][Sar][Sar]K[Sar]DCP[1Nal][dD][Pen]M[hArg]DWSTP[Hyp]WC-NH2 / II: V[Cit][PABC][NMeV]V[Dil][Dolaproine]-X1; lactam I:11-I:13; linker I:14-I:18-I:28 via TATA; linker I:N-II:N via X2) yielded a Kd (Human Nectin-4) of 0.43 nM and a half-life at 2 μM [1] of over 9.63 h.
